Laboratory results as given in patent publication US20250340519A1, “RADIOLABELLED COMPOUND” (OXFORD UNIVERSITY INNOVATION LIMITED, priority 2018, published 2025).
Several values for one entry are separate records, joined by “and”; a condition that tells them apart may be missing. Equal values may be shown once.

Legend:
Panc-1 xenograft = experiment: Ex vivo biodistribution in Panc-1 xenograft bearing mice
Method: Animals were housed in IVC cages in sex-matched groups up to 5 per cage, in an artificial day-night cycle facility, with ad libitum access to food and water. […] CaNT xenografts were generated by harvesting CaNT tumours from donor animals, and injecting a tumour homogenate subcutaneously in the flank of wild type CBA/Carl mice. Tumours were irradiated (10 Gy, 2 Gy/min) using a 300 kV X-ray device.
Biodistribution studies, where selected tissues were harvested, were performed 1 h post injection. Some animals were also administered an excess of cold, unlabelled olaparib for evaluating the specificity of tumour uptake. EF5, a hypoxia-selective marker, was injected 2 h before culling of the animal. Digital autoradiography was performed on tumour sections. Image analysis was performed using PMOD.
Cells were harvested using trypsin, washed twice using PBS, and reconstituted in DMEM. […] Tumour volumes (V) were calculated after calliper measurement using the following equation: V=(a^2×b)/2, where a is the width of the tumour and b the length (small and large diameters, respectively). The individual relative tumour volume (RTV) was defined as Vt/Vo, where Vt is the volume at a given time and Vo at the start of treatment. Animals were entered in in vivo studies when their tumour was at least 200 mm^3.
Two hours prior to PET/CT imaging, animals were exposed to X-irradiation of the tumour (10 Gy or sham) (see schedule in FIG. 13). Radiation was delivered using a Gulmay 320 kV X-irradiator; 2.0 Gy/min. […] Naïve CBA/Carl mice, not bearing tumours, were not irradiated, nor was EF5 administered.
Dynamic PET/CT images were acquired using a VECTor ^4CT integrated PET/CT system. Mice were anaesthetised by 4% isoflurane gas (0.5 L/min O2) and placed on a custom-built imaging cradle in a prone position.
After PET/CT image acquisition, animals were euthanized by cervical dislocation and selected organs, tissues and blood were removed. […] Counts per minute were converted into MBq using a calibration curve generated from known standards. Values were decay-corrected to the time of injection, and the percentage of the injected dose per gram (% ID/g) of each tissue was calculated.

[1] = Dynamic PET blood clearance in naïve CBA/Carl mice; assay type: in vivo; conditions: i.v. 3 MBq
[2] = tested on: U87MG and U251MG xenografts; experiment: 18F-olaparib biodistribution in U87MG and U251MG tumour xenograft mouse models; assay type: in vivo, Balb/c nude mice; conditions: both U87MG and U251MG tumours, 60-120 min p.i.
Method: U87MG and U251MG xenografts were generated in Balb/c nude mice. The xenograft models were administered various doses (0.5, 1.0, 4.0, and 8.0 μg) of ^18F-olaparib by tail vein injection. At 60-120 min post-injection, mice were sacrificed and organs were collected for biodistribution; see FIGS. 27(a) and (b), and FIG. 28(a). […] We predicted that the uptake for the U251MG xenografts would be greater, but in vivo there is no significant difference between the % ID/g for the U251MG or U87MG xenograft tumours.
A 20-fold excess of cold olaparib was injected via tail vein 60 m prior to 1 μg of ^18F-olaparib via tail vein. The mice were sacrificed at 60-120 min post-injection and organs were harvested.

PANC-1 cells = experiment: Cell uptake of [18F]olaparib in PANC-1 cells; assay type: cell-based, human; conditions: radiation dose-dependent
Method: PARP1 levels in a limited selection of PDAC cell lines were determined using Western blot and confirmed by immunofluorescence microscopy. […] Uptake was reported as a percentage of the total amount added, per mg of total protein recovered from the isolated cells, determined by BCA assay. Specificity of uptake was determined by blocking olaparib binding sites using an excess of cold, unlabeled olaparib, or other PARP inhibitors (rucaparib, talazoparib).
Cell uptake of ^18F-olaparib in Panc-1, MiaPaCa-2 and Capan-1 cells was determined as previously described (Cornelissen, B., Hu, M., McLarty, K., Costantini, D. & Reilly, R. M.
Cellular penetration and nuclear importation properties of 111In-labeled and 123I-labeled HIV-1 tat peptide immunoconjugates in BT-474 human breast cancer cells. Nucl Med Biol 34, 37-46, 2007; Thurber, G. M., Reiner, T., Yang, K. S., Kohler, R. H. & Weissleder, R. Effect of small-molecule modification on single-cell pharmacokinetics of PARP inhibitors. Molecular cancer therapeutics 13, 986-995, 2014; Reiner, T., et al. Imaging therapeutic PARP inhibition in vivo through bioorthogonally developed companion imaging agents. Neoplasia 14, 169-177, 2012). Aliquots of Panc-1, MiaPaca-2, and Capan-1 cells (1.5×10^5 cells/well) were seeded in 24-well plates in warm cell culture medium (500 μL) and the cells were allowed to adhere overnight. Cells were irradiated (10 Gy; dose rate 0.8 Gy/min) or sham-irradiated and then returned to an incubator (37° C., 5% CO2) for 2 h. […] In the blocking groups, non-radioactive olaparib, talazoparib, or rucaparib were also added in increasing concentrations (10 pM-10 μM. After 30 or 60 minutes, the cell culture medium was removed and combined with two washes (500 μL) of cell culture medium. The remaining monolayer of cells was then lysed with 0.1 M sodium hydroxide for 20 minutes at room temperature. The amount of radioactivity contained within the cell culture medium and the cell lysate fractions was measured using a gamma counter. Protein levels from parallel plates were quantified using a Pierce BCA protein assay kit (Thermo Scientific) according to the manufacturer's recommendations and bovine serum albumin was used as the protein standard. Cell uptake levels of [^18F]-olaparib were normalised to percent of the total added radioactivity per milligram protein. […] IC50 values were calculated using GraphPad Prism software (GraphPad Software, San Diego, CA, USA). […]
Aliquots of Panc-1, MiaPaca-2, and Capan-1 cells (7.5×10^4 cells/well) were seeded in 24-well plates in warm cell culture medium (500 μL). […] The amount of radioactivity contained within the cell culture medium and the cell lysate fractions was measured using a gamma counter. […]

SMILES: O=C(c1cc(Cc2n[nH]c(=O)c3ccccc23)ccc1[18F])N1CCN(C(=O)C2CC2)CC1 [[^18F]olaparib]
- tumour uptake (group mean) (Panc-1 xenograft; PANC-1 xenografts, 1 h after i.v. bolus, tracer alone): 3.16±0.36 % ID/g
- increase of tumour uptake after irradiation (Panc-1 xenograft; PANC-1 xenografts, 2 h after 10 Gy vs non-irradiated): 70%
- tumour uptake (group mean) (Panc-1 xenograft; PANC-1 xenografts, 2 h after irradiation (10 Gy)): 5.35±1.16 % ID/g
- tumour uptake (group mean) (Panc-1 xenograft; PANC-1 xenografts, co-injection of excess cold olaparib): 1.20±0.17 % ID/g
- Ex vivo biodistribution Small intestine (Panc-1 xenograft; Panc-1 xenograft mice, + IR (10 Gy), 1 h p.i., individual animals): 65.1 % ID/g and 113 % ID/g and 95.2 % ID/g
- clearance pattern ([1]; dynamic PET): hepatobilliary
- weighted blood half-life [1]: 19.3 min
- blood clearance fast half-life ([1]; biphasic fit, fast phase (44%)): 2.8 min
- blood clearance slow half-life ([1]; biphasic fit, slow phase (56%)): 32.3 min
- decrease of tumour % ID/g at 8.0 μg compared to 1.0 μg tracer [2]: > 50%
- [^18F]olaparib uptake after gamma-irradiation (PANC-1 cells): increased
